We go through seven substances from patent US9028845B2, “Chimeric immunomodulatory compounds and methods of using the same-IV” (Dynavax Technologies Corporation, priority 2001, dated 2015).

This experiment relates to human PBMCs. Nature of the experiment: Human PBMC cytokine response assay (IFN-γ and IFN-α in cell-free medium by ELISA), with or without cPLGA.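 For IFN-α (pg/ml) mean: 20 µg/mL compound for 24 hours.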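 For IFN-γ (pg/ml) mean: 20 µg/mL compound for 24 hours.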 It counts as cell-based. Conditions: for immunomodulatory activity (IFN-γ / IFN-α secretion), in words: used alone (no cPLGA). In general terms: ELISA stands for enzyme-linked immunosorbent assay.
[1] abbreviates: mean of donors 110, 112, 119, 120, Table 14.
Setting [2] is: Table 24, mean of donors 28234-28237.
Where [3] appears, read: mean of donors 28057-28060, Table 16.
[4] abbreviates: Table 25, mean of donors 28250-28253.

As for “5′-TCGTCGT-3′-HEG-5′-TCGTCGT-3′-HEG-5′-TCGTCGT-3′ [Compound C-42]”, the IFN-α is 0 pg/mL (Table 10, donor 28042); 29 pg/mL (Table 10, donor 28043); 24 pg/mL (Table 10, donor 28044); 0 pg/mL (Table 10, donor 28045); 250 pg/mL (donor 110, Table 14); 26 pg/mL (donor 112, Table 14). For the same substance, the “IFN-α” value is, setting by setting: (donor 119, Table 14) 156 pg/mL; (donor 120, Table 14) 36 pg/mL. Also, the IFN-γ turned out to be 198 pg/mL (Table 10, donor 28042); 1067 pg/mL (Table 10, donor 28043); 4000 pg/mL (Table 10, donor 28044); 37 pg/mL (Table 10, donor 28045); 1508 pg/mL (donor 110, Table 14); 204 pg/mL (donor 112, Table 14). The “IFN-γ” value (donor 119, Table 14) turned out to be 56 pg/mL and the “IFN-γ” value (donor 120, Table 14) is 56 pg/mL. For the same substance, the IFN-α mean (Table 10, mean of donors) came out at 13 pg/mL. The IFN-γ mean (Table 10, mean of donors) was found to be 1326 pg/mL. For the same substance, the “IFN-α (pg/ml) mean” value under setting [1] was 117 pg/mL. Besides, under setting [1], the “IFN-γ (pg/ml) mean” value came out at 456 pg/mL.

As for “5′-TCGTCG-3′-HEG-5′-TCGA-3′ [Compound C-40]”, the “activity when formulated with cPLGA, in words” value is listed as “significant activity when formulated with cPLGA” and the “immunomodulatory activity (IFN-γ / IFN-α secretion), in words” value is “inactive in this experiment”. Where the note is “Table 10, donor 28042”, this substance registered an IFN-α of 0 pg/mL and an IFN-γ of 26 pg/mL. Besides, under “Table 10, donor 28043”, the IFN-α is 26 pg/mL and the IFN-γ amounted to 55 pg/mL. In addition, where the note is “Table 10, donor 28044”, the IFN-α came to 31 pg/mL and the IFN-γ came out at 20 pg/mL. Where the note is “Table 10, donor 28045”, the IFN-α was found to be 2 pg/mL and the IFN-γ came to 23 pg/mL. For the setting “Table 10, mean of donors”, this substance came in with an IFN-α mean of 15 pg/mL and an IFN-γ mean of 31 pg/mL. Where the note is “donor 110, Table 14”, the “IFN-α” value came out at 6 pg/mL and the “IFN-γ” value amounted to 180 pg/mL. In addition, where the note is “donor 112, Table 14”, the “IFN-α” value was found to be 198 pg/mL and the “IFN-γ” value was determined as 12 pg/mL. Moreover, where the note is “donor 119, Table 14”, the “IFN-α” value worked out at 152 pg/mL and the “IFN-γ” value is 4 pg/mL. Further, for the setting “donor 120, Table 14”, the “IFN-α” value was 2 pg/mL and the “IFN-γ” value came out at 20 pg/mL. Moreover, under setting [1], the “IFN-α (pg/ml) mean” value came out at 90 pg/mL and the “IFN-γ (pg/ml) mean” value stood at 54 pg/mL.

Consider “5′-TCGACGT-3′-HEG-5′-TCGACGT-3′-HEG-5′-TCGACGT-3′-HEG-5′-TCGACGT-3′ [Compound C-71]”, for which the IFN-α is 17 pg/mL (Table 24, donor 28234); 30 pg/mL (Table 24, donor 28235); 538 pg/mL (Table 24, donor 28236); 1665 pg/mL (Table 24, donor 28237). Further, the IFN-γ (Table 24, donor 28234) is 30 pg/mL; the IFN-γ (Table 24, donor 28235) amounted to 168 pg/mL; the IFN-γ (Table 24, donor 28236) amounted to 448 pg/mL; the IFN-γ (Table 24, donor 28237) came to 1663 pg/mL. This substance also displayed an IFN-α mean under setting [2] of 563 pg/mL. Under setting [2], the IFN-γ mean stood at 577 pg/mL.

With “5′-TCGTCG-3′-(C3)15-5′-T-3′ [Compound C-13]”, the “activity when formulated with cPLGA, in words” value is “all had significant activity when formulated on cPLGA” and the “immunomodulatory activity (IFN-γ / IFN-α secretion), in words” value is given as “None of the CICs was active when used alone”. Further, for the setting “donor 28057, Table 16”, the “IFN-α” value was determined as 31 pg/mL and the “IFN-γ” value is 2 pg/mL. Under “donor 28058, Table 16”, the “IFN-α” value was 0 pg/mL and the “IFN-γ” value came to 3 pg/mL. Moreover, for the setting “donor 28059, Table 16”, the “IFN-α” value turned out to be 249 pg/mL and the “IFN-γ” value was determined as 12 pg/mL. For the setting “donor 28060, Table 16”, the “IFN-α” value came out at 0 pg/mL and the “IFN-γ” value was determined as 5 pg/mL. Besides, under setting [3], the “IFN-α (pg/ml) mean” value worked out at 70 pg/mL and the “IFN-γ (pg/ml) mean” value came out at 6 pg/mL.

Take “5′-TCGTCGA-3′-C3-5′-TCGTCGA-3′-C3-5′-TCGTCGA-3′ all phosphorothioate linkages [Compound C-33]”: the IFN-α (Table 9, donor 28089) was determined as 56 pg/mL; the IFN-α (Table 9, donor 28090) amounted to 22 pg/mL; the IFN-α (Table 9, donor 28098) amounted to 34 pg/mL; the IFN-α (Table 9, donor 28099) was determined as 30 pg/mL; the IFN-α (Table 24, donor 28234) worked out at 16 pg/mL; the IFN-α (Table 24, donor 28235) came out at 16 pg/mL. For the same substance, the IFN-α by setting is: (Table 24, donor 28236) 16 pg/mL; (Table 24, donor 28237) 91 pg/mL. Moreover, the IFN-γ stood at 0 pg/mL (Table 9, donor 28089); 0 pg/mL (Table 9, donor 28090); 0 pg/mL (Table 9, donor 28098); 3 pg/mL (Table 9, donor 28099); 23 pg/mL (Table 24, donor 28234); 86 pg/mL (Table 24, donor 28235). Moreover, the IFN-γ reads like this: (Table 24, donor 28236) 247 pg/mL; (Table 24, donor 28237) 2076 pg/mL. The IFN-α mean runs as follows: (Table 9, mean of donors) 36 pg/mL; under setting [2], 35 pg/mL. In addition, the IFN-γ mean stood at 1 pg/mL (Table 9, mean of donors) and 608 pg/mL under setting [2].

As for “5′-TCGAGAT-3′-HEG-5′-TCGAGAT-3′-HEG-5′-TCGAGAT-3′ [Compound C-45]”, the IFN-α (Table 10, donor 28042) stood at 62 pg/mL; the IFN-α (Table 10, donor 28043) turned out to be 123 pg/mL; the IFN-α (Table 10, donor 28044) stood at 152 pg/mL; the IFN-α (Table 10, donor 28045) is 14 pg/mL; the “IFN-α” value (donor 110, Table 14) worked out at 446 pg/mL; the “IFN-α” value (donor 112, Table 14) was 130 pg/mL. In addition, the “IFN-α” value (donor 119, Table 14) turned out to be 1074 pg/mL and the “IFN-α” value (donor 120, Table 14) came to 428 pg/mL. The IFN-γ is, setting by setting: (Table 10, donor 28042) 590 pg/mL; (Table 10, donor 28043) 1466 pg/mL; (Table 10, donor 28044) 984 pg/mL; (Table 10, donor 28045) 253 pg/mL; (donor 110, Table 14) 880 pg/mL; (donor 112, Table 14) 192 pg/mL. The “IFN-γ” value by setting is: (donor 119, Table 14) 52 pg/mL; (donor 120, Table 14) 36 pg/mL. The IFN-α mean (Table 10, mean of donors) turned out to be 88 pg/mL. Besides, the IFN-γ mean (Table 10, mean of donors) was 823 pg/mL. The IFN-a is, setting by setting: (Table 25, donor 28250) 16 pg/mL; (Table 25, donor 28251) 109 pg/mL; (Table 25, donor 28252) 55 pg/mL; (Table 25, donor 28253) 382 pg/mL. Also, the IFN-g is 107 pg/mL (Table 25, donor 28250, polynucleotides/spacers at amounts equivalent to the CIC, spacers alone 9 uM); 26 pg/mL (Table 25, donor 28251); 95 pg/mL (Table 25, donor 28252); 8 pg/mL (Table 25, donor 28253). Under setting [4], this substance gave an IFN-a mean of 140 pg/mL. The IFN-g mean under setting [4] stood at 59 pg/mL. Also, the “IFN-α (pg/ml) mean” value under setting [1] was determined as 520 pg/mL. The “IFN-γ (pg/ml) mean” value under setting [1] was found to be 290 pg/mL. In addition, the “IFN-α induction, in words” value (used alone) is recorded as “generated more IFN-α than CICs containing a 5′-TCGT-3′”.

Turning to “5′-TCGACTC-3′-HEG-5′-TCGAGCG-3′-HEG-5′-TTCTCTT-3′ [Compound C-63]”, the “IFN-α” value by setting is: (donor 110, Table 14) 294 pg/mL; (donor 112, Table 14) 38 pg/mL; (donor 119, Table 14) 464 pg/mL; (donor 120, Table 14) 228 pg/mL. Also, the “IFN-γ” value is 1536 pg/mL (donor 110, Table 14); 376 pg/mL (donor 112, Table 14); 80 pg/mL (donor 119, Table 14); 60 pg/mL (donor 120, Table 14). For the same substance, the “IFN-α (pg/ml) mean” value under setting [1] stood at 256 pg/mL. Besides, the “IFN-γ (pg/ml) mean” value under setting [1] is 513 pg/mL.
